What was measured:
[1] = cn = amount concentration of the nth substance listed, in mol/dm3; details: 101 kPa, Liquid
[2] = specific heat capacity at constant pressure; cn = amount concentration of the nth substance listed, in mol/dm3; details: 101 kPa, Liquid, heat flux microcalorimetry

CC#N [acetonitrile] + [Cl-].c1ccc([P+](c2ccccc2)(c2ccccc2)c2ccccc2)cc1
c2 = 0
Details	mass density, 308.65 K [kg/m3]	mass density, 311.65 K [kg/m3]	mass density, 314.65 K [kg/m3]	specific heat capacity, 308.65 K [J/K/kg]	specific heat capacity, 311.65 K [J/K/kg]	specific heat capacity, 314.65 K [J/K/kg]
[1]	765.82	762.77	759.726	–	–	–
[2]	–	–	–	2274.3	2280.4	2286.5

CCO [ethanol] + [Cl-].c1ccc([P+](c2ccccc2)(c2ccccc2)c2ccccc2)cc1
c2 = 0
Details	mass density, 308.65 K [kg/m3]	mass density, 311.65 K [kg/m3]	mass density, 314.65 K [kg/m3]	specific heat capacity, 308.65 K [J/K/kg]	specific heat capacity, 311.65 K [J/K/kg]	specific heat capacity, 314.65 K [J/K/kg]
[1]	775.93	773.4	770.84	–	–	–
[2]	–	–	–	2592.8	2653.8	2694.1

CO [methanol] + [Cl-].c1ccc([P+](c2ccccc2)(c2ccccc2)c2ccccc2)cc1
c2 = 0
Details	mass density, 308.65 K [kg/m3]	mass density, 311.65 K [kg/m3]	mass density, 314.65 K [kg/m3]	specific heat capacity, 308.65 K [J/K/kg]	specific heat capacity, 311.65 K [J/K/kg]	specific heat capacity, 314.65 K [J/K/kg]
[1]	776.519	773.896	771.1	–	–	–
[2]	–	–	–	2554.5	2577	2621

[Cl-].c1ccc([P+](c2ccccc2)(c2ccccc2)c2ccccc2)cc1 [tetraphenylphosphonium chloride] + CC#N
Details	mass density, c1 = 0.005 [kg/m3]	mass density, c1 = 0.01 [kg/m3]	mass density, c1 = 0.02 [kg/m3]	mass density, c1 = 0.05 [kg/m3]	mass density, c1 = 0.1 [kg/m3]	specific heat capacity, c1 = 0.005 [J/K/kg]	specific heat capacity, c1 = 0.01 [J/K/kg]	specific heat capacity, c1 = 0.02 [J/K/kg]	specific heat capacity, c1 = 0.05 [J/K/kg]	specific heat capacity, c1 = 0.1 [J/K/kg]
[1], 308.65 K	767.478	768.43	772.35	776.18	784.14	–	–	–	–	–
[1], 311.65 K	764.4	765.22	769.19	773.42	780.77	–	–	–	–	–
[1], 314.65 K	762.76	762.76	766.82	770.87	777.19	–	–	–	–	–
[2], 308.65 K	–	–	–	–	–	2269.4	2269.1	2258.9	2255.3	2238.7
[2], 311.65 K	–	–	–	–	–	2275.5	2277	2267.8	2265.6	2250.6
[2], 314.65 K	–	–	–	–	–	2281.3	2282.6	2274.3	2267.5	2257.9

[Cl-].c1ccc([P+](c2ccccc2)(c2ccccc2)c2ccccc2)cc1 [tetraphenylphosphonium chloride] + CCO
Details	mass density, c1 = 0.005 [kg/m3]	mass density, c1 = 0.01 [kg/m3]	mass density, c1 = 0.02 [kg/m3]	mass density, c1 = 0.05 [kg/m3]	mass density, c1 = 0.1 [kg/m3]	specific heat capacity, c1 = 0.005 [J/K/kg]	specific heat capacity, c1 = 0.01 [J/K/kg]	specific heat capacity, c1 = 0.02 [J/K/kg]	specific heat capacity, c1 = 0.05 [J/K/kg]	specific heat capacity, c1 = 0.1 [J/K/kg]
[1], 308.65 K	777.31	778.02	778.83	784.24	791.62	–	–	–	–	–
[1], 311.65 K	775.32	775.16	776.11	781.91	789.98	–	–	–	–	–
[1], 314.65 K	772.48	772.21	773.38	779.58	787.77	–	–	–	–	–
[2], 308.65 K	–	–	–	–	–	2520.9	2545.7	2549.3	2555.5	2570
[2], 311.65 K	–	–	–	–	–	2581.5	2600.7	2606.3	2607.1	2623
[2], 314.65 K	–	–	–	–	–	2627.1	2638.3	2650.8	2650	2633.7

[Cl-].c1ccc([P+](c2ccccc2)(c2ccccc2)c2ccccc2)cc1 [tetraphenylphosphonium chloride] + CO
Details	mass density, c1 = 0.005 [kg/m3]	mass density, c1 = 0.01 [kg/m3]	mass density, c1 = 0.02 [kg/m3]	mass density, c1 = 0.05 [kg/m3]	mass density, c1 = 0.1 [kg/m3]	specific heat capacity, c1 = 0.005 [J/K/kg]	specific heat capacity, c1 = 0.01 [J/K/kg]	specific heat capacity, c1 = 0.02 [J/K/kg]	specific heat capacity, c1 = 0.05 [J/K/kg]	specific heat capacity, c1 = 0.1 [J/K/kg]
[1], 308.65 K	776.52	779.51	780.37	787.22	793.29	–	–	–	–	–
[1], 311.65 K	774.51	778.81	777.85	784.14	790.42	–	–	–	–	–
[1], 314.65 K	771.62	775.7	774.95	782.06	788.49	–	–	–	–	–
[2], 308.65 K	–	–	–	–	–	2543.2	2548.5	2556.9	2605.5	2660.8
[2], 311.65 K	–	–	–	–	–	2564.1	2565.8	2582.9	2628.9	2691.7
[2], 314.65 K	–	–	–	–	–	2570.9	2605.9	2599.5	2637.3	2721.3

[Cl-].c1ccc([P+](c2ccccc2)(c2ccccc2)c2ccccc2)cc1 [tetraphenylphosphonium chloride] + O
Details	mass density, c1 = 0.005 [kg/m3]	mass density, c1 = 0.01 [kg/m3]	mass density, c1 = 0.02 [kg/m3]	mass density, c1 = 0.05 [kg/m3]	mass density, c1 = 0.1 [kg/m3]	specific heat capacity, c1 = 0.005 [J/K/kg]	specific heat capacity, c1 = 0.01 [J/K/kg]	specific heat capacity, c1 = 0.02 [J/K/kg]	specific heat capacity, c1 = 0.05 [J/K/kg]	specific heat capacity, c1 = 0.1 [J/K/kg]
[1], 308.65 K	994.05	995.67	998.12	996.84	1001.06	–	–	–	–	–
[1], 311.65 K	993.46	994.88	996.99	995.58	997.28	–	–	–	–	–
[1], 314.65 K	991.77	992.33	995.43	994.11	995.93	–	–	–	–	–
[2], 308.65 K	–	–	–	–	–	4202.5	4203.6	4207	4217.3	4229.9
[2], 311.65 K	–	–	–	–	–	4203.6	4206.5	4209.8	4218.4	4241.9
[2], 314.65 K	–	–	–	–	–	4203.8	4208.4	4211.1	4219.7	4244.7

O [water] + [Cl-].c1ccc([P+](c2ccccc2)(c2ccccc2)c2ccccc2)cc1
c2 = 0
Details	mass density, 311.65 K [kg/m3]	mass density, 314.65 K [kg/m3]	specific heat capacity, 308.65 K [J/K/kg]	specific heat capacity, 311.65 K [J/K/kg]	specific heat capacity, 314.65 K [J/K/kg]
[1]	993.13	991.68	–	–	–
[2]	–	–	4182	4182.2	4182.4

— the NIST ThermoML archive (doi:10.1016/j.fluid.2010.03.017)
